Measured values taken from article PMC7377239, “Cardiovascular Effects of Polychlorinated Biphenyls and Their Major Metabolites” (Environmental Health Perspectives, 2020).
Where two headings read alike, the source gives them in different places.

Experiments:
[1] = tested on: iCell cardiomyocytes (human iPSC-derived cardiomyocytes); experiment: High-content imaging of cytotoxicity and mitochondrial integrity in iPSC-CMs; type: cell-based; conditions: Homo sapiens; for viability at 0.01 µM / activity at 0.01 µM / viability at 0.1 µM / activity at 0.1 µM / viability at 1 µM / activity at 1 µM / viability at 10 µM / activity at 10 µM / viability at 100 µM / activity at 100 µM: 0.00 µM = 100.00; for viability at 0.1 µM / activity at 0.1 µM: 0.10 µM
Protocol: Details on cardiomyocyte cell culture are described in detail elsewhere ([Grimm et al. 2015b]; [Sirenko et al. 2013a]). Briefly, tissue-culture treated 384 well plates were gelatinized with 25μL per well of 0.1% (w/v) gelatin in water for 2 h at 37°C and 5% CO2 . Individual vials of cells were thawed for 4 min in a water bath maintained at 37°C. Thawed cells were resuspended in 10ml plating medium containing 1:500 (vol/vol) penicillin/streptomycin solution at room temperature (RT). Live cell counts for each cell suspension were determined by trypan blue staining and cells were further diluted to provide final cell densities of 2×10^5 viable cells/ml. Thus, 5,000 cells suspended in 25μL media were transferred per well after the gelatin solution had been discarded. Cell culture plates were rested for 30 min at RT before they were incubated for 48 h at 37°C and 5% CO2 . Then, a media exchange with 30μL of fresh maintenance medium containing 1:500 (vol/vol) penicillin/streptomycin solution was performed, and cell media were subsequently changed every 48 h for 12 d. On the experiment day, the medium was completely exchanged with either 25μL (for Ca^2+ flux assay) or 40μL (for imaging) of fresh medium.
Cytotoxicity and effects on mitochondrial integrity of various PCBs and PCB metabolites in induced pluripotent stem cell-CMs (iPSC-CMs) were assessed using high-content cellular imaging in ImageXpress® Micro Confocal (Molecular Devices) as detailed in ([Grimm et al. 2015b]). Cells in 40μL maintenance media were treated with 10μL of 5× chemical solutions to provide test chemicals at final assay concentrations ranging from 0.01 to 100μM . […] Next, sample wells were treated with 50μL equilibrated 2× concentrated staining solution (maintenance medium containing Hoechst 33342, 4μg/mL and MitoTracker™ Orange, 0.4μM ). Microplates were then incubated for 15 min at 37°C and 5% CO2 before cells were washed twice with 30μL maintenance medium. All media were aspirated and discarded, and cells were fixed with […] of a 3.7% formaldehyde solution for 15 min at 37°C and 5% […] . Fixed cells were washed 3× with 25μL PBS before image acquisition using the DAPI (Hoechst 33342) and Cy3 (MitoTracker™ Orange) filters at 10× magnification on the ImageXpress® Micro Confocal high-content confocal microscope (Molecular Devices). The multiwavelength cell scoring applications module in MetaXpress® was used to analyze acquired images.
(§1) Phenotypic responses were quantitatively assessed using concentration–response modeling as detailed elsewhere ([Sirenko et al. 2017]). Briefly, phenotypic readouts were normalized to vehicle controls and fit to a four-parameter logistic model in R studio software (version 3.1.1; R Development Core Team). Following EPA guidance on dose–response modeling, a cutoff of one standard deviation across means of vehicle control (i.e., 0.5% vol/vol DMSO in cell culture media) wells was applied to determine the point-of-departure (POD) values ([U.S. EPA 2012]). In the absence of a concentration–response, the highest tested concentration (i.e., 100μM ) was assigned as “no observable adverse effect level.” The concentration–response assessment R script, as well as templates for vehicle and concentration–response data, are available as a supplement to Sirenko et al. ([2017]). The ability of physicochemical properties to predict differences in PODs were evaluated by multiregression and mixed-effects modeling using R.

HUVECs = experiment: High-content imaging cytotoxicity in HUVECs, 24 h; type: cell-based, human; conditions: Homo sapiens, HUVEC, 24 h, HUVEC; for viability at 0.01 µM / activity at 0.01 µM / viability at 0.1 µM / activity at 0.1 µM / viability at 1 µM / activity at 1 µM / viability at 10 µM / activity at 10 µM / viability at 100 µM / activity at 100 µM: 0.00 µM = 100.00; for viability at 0.1 µM / activity at 0.1 µM: 0.10 µM
Protocol: Similar to the cultivation of iCell®-endothelial cells, HUVEC maintenance and experimentation are detailed elsewhere ([Iwata et al. 2017]). Briefly, HUVECs were thawed, seeded, and grown in T75 tissue culture flasks in Medium 199 with EGM™-2 BulletKits™. HUVECs were incubated at regular cell culture conditions, 37°C and 5% CO2 , and passaged every 2–3 d using TrypLE™ Express. To ensure adequate endothelial function, experiments were performed with cells between passages 1 and 5.
Cytotoxicity was assessed in parallel experiments. For iCell®-endothelial cells, 384-well plates were coated with a 30μg/mL fibronectin solution ( 10μL/well ) and incubated for 2 h at RT. iCell®-endothelial cells were dissociated with TrypLE™ Express and prepared into a solution to achieve 750 cells per well and 50μL of total volume. The fibronectin solution was removed from the 384-well plate, and cells were plated. For HUVECs, similar dissociation and the same cell density were used for plating with the exclusion of the fibronectin solution. Cells were incubated at 37°C and 5% CO2 until a monolayer was formed, typically 3–5 d. 2×PCB plates were created with the requisite maintenance medium. Before treatment, the medium in the wells was exchanged to 25μL/well of fresh maintenance medium. 2×PCB chemical solutions ( […] ) were added. After 24 h incubation at 37°C and 5% CO2 , cells were stained with Hoechst 33342, MitoTracker™ Orange, and calcein AM for 20 min before replacing the staining media with FluoroBright DMEM. Cell culture plates were imaged using the ImageXpress® Micro Confocal high-content imaging system (Molecular Devices). Images were acquired at 10× magnification with DAPI, TRITC, or FITC filter (Hoechst 33342, MitoTracker™, or calcein AM, respectively). The multiwavelength cell scoring applications module in MetaXpress™ (Molecular Devices) was used to analyze the images.
as §1

[2] = Cardiomyocyte, 1.5 h, read-out: cm.cam.90min
[3] = Cardiomyocyte, 1.5 h, read-out: cm.mii.90min
[4] = Cardiomyocyte, 1.5 h, read-out: cm.mito.90min
[5] = Cardiomyocyte, 1.5 h, read-out: cm.tc.90min
[6] = Cardiomyocyte, 24 h, read-out: cm.cam.24hrs
[7] = Cardiomyocyte, 24 h, read-out: cm.mii.24hrs
[8] = Cardiomyocyte, 24 h, read-out: cm.mito.24hrs
[9] = Cardiomyocyte, 24 h, read-out: cm.tc.24hrs
[10] = HUVECs, 24 hr, read-out: huvec.cyto.24hr
[11] = HUVECs, 24 hr, read-out: huvec.mito.24hr
[12] = HUVECs, 24 hr, read-out: huvec.mitoint.24hr
[13] = HUVECs, 24 hr, read-out: huvec.nma.24hr
[14] = HUVECs, 24 hrs, read-out: huvec.tc.24hrs

O=C1C=CC(=O)C(c2ccc(Cl)cc2)=C1 [4-Cl-BQ, 2-(4-Chlorophenyl)benzo-2,5-quinone]
viability at 0.01 µM [1, 2]: 103%
activity at 0.01 µM [1, 3]: 106%
activity at 0.01 µM [1, 4]: 103%
viability at 0.01 µM [1, 5]: 103%
viability at 0.1 µM [1, 2]: 96.5%
activity at 0.1 µM [1, 3]: 116%
activity at 0.1 µM [1, 4]: 95.9%
viability at 0.1 µM [1, 5]: 96.2%
viability at 1 µM [1, 2]: 100%
activity at 1 µM [1, 3]: 117%
activity at 1 µM [1, 4]: 100%
viability at 1 µM [1, 5]: 100%
viability at 10 µM [1, 2]: 103%
activity at 10 µM [1, 3]: 91.5%
activity at 10 µM [1, 4]: 102%
viability at 10 µM [1, 5]: 103%
viability at 100 µM [1, 2]: 29.9%
activity at 100 µM [1, 3]: 8.08%
activity at 100 µM [1, 4]: 0.09%
viability at 100 µM [1, 5]: 100%
minimal effective concentration ([1]; Cardiomyocyte, 1.5 h, cardiomyocytes (cm), cam, 90 min, read-out: POD cm.cam.90min): 37.6 µM
minimal effective concentration ([1]; Cardiomyocyte, 1.5 h, cardiomyocytes (cm), mii, 90 min, read-out: POD cm.mii.90min): 9.33 µM
minimal effective concentration ([1]; Cardiomyocyte, 1.5 h, cardiomyocytes (cm), mito, 90 min, read-out: POD cm.mito.90min): 38.7 µM
minimal effective concentration ([1]; Cardiomyocyte, 1.5 h, cardiomyocytes (cm), tc, 90 min, read-out: POD cm.tc.90min): 100 µM
viability at 0.01 µM [1, 6]: 92.6%
activity at 0.01 µM [1, 7]: 100%
activity at 0.01 µM [1, 8]: 89.4%
viability at 0.01 µM [1, 9]: 92.8%
viability at 0.1 µM [1, 6]: 98.4%
activity at 0.1 µM [1, 7]: 110%
activity at 0.1 µM [1, 8]: 96.5%
viability at 0.1 µM [1, 9]: 99.1%
viability at 1 µM [1, 6]: 105%
activity at 1 µM [1, 7]: 97.3%
activity at 1 µM [1, 8]: 103%
viability at 1 µM [1, 9]: 105%
viability at 10 µM [1, 6]: 51.1%
activity at 10 µM [1, 7]: 128%
activity at 10 µM [1, 8]: 50.9%
viability at 10 µM [1, 9]: 50.4%
viability at 100 µM [1, 6]: 66.6%
activity at 100 µM [1, 7]: 0.9%
activity at 100 µM [1, 8]: 0.05%
viability at 100 µM [1, 9]: 100%
minimal effective concentration ([1]; Cardiomyocyte, 24 h, cardiomyocytes (cm), cam, 24 hrs, read-out: POD cm.cam.24hrs): 0.06 µM
minimal effective concentration ([1]; Cardiomyocyte, 24 h, cardiomyocytes (cm), mii, 24 hrs, read-out: POD cm.mii.24hrs): 46.4 µM
minimal effective concentration ([1]; Cardiomyocyte, 24 h, cardiomyocytes (cm), mito, 24 hrs, read-out: POD cm.mito.24hrs): 3.85 µM
minimal effective concentration ([1]; Cardiomyocyte, 24 h, cardiomyocytes (cm), tc, 24 hrs, read-out: POD cm.tc.24hrs): 100 µM
minimal effective concentration ([1]; iPSC-CM, 1.5 h, iPSC-CM, read-out: cm.cam.90min POD): 37.6 µM
minimal effective concentration ([1]; iPSC-CM, 1.5 h, iPSC-CM, read-out: cm.mii.90min POD): 9.33 µM
minimal effective concentration ([1]; iPSC-CM, 1.5 h, iPSC-CM, read-out: cm.mito.90min POD): 38.7 µM
minimal effective concentration ([1]; iPSC-CM, 1.5 h, iPSC-CM, read-out: cm.tc.90min POD): 100 µM
minimal effective concentration ([1]; iPSC-CM, 24 h, iPSC-CM, read-out: cm.cam.24hrs POD): 0.06 µM
minimal effective concentration ([1]; iPSC-CM, 24 h, iPSC-CM, read-out: cm.mii.24hrs POD): 46.4 µM
minimal effective concentration ([1]; iPSC-CM, 24 h, iPSC-CM, read-out: cm.mito.24hrs POD): 3.85 µM
minimal effective concentration ([1]; iPSC-CM, 24 h, iPSC-CM, read-out: cm.tc.24hrs POD): 100 µM
minimal effective concentration (HUVECs; cyto, 24 hr, read-out: POD huvec.cyto.24hr): 0.00637 µM
minimal effective concentration (HUVECs; mito, 24 hr, read-out: POD huvec.mito.24hr): 0.08 µM
minimal effective concentration (HUVECs; mitoint, 24 hr, read-out: POD huvec.mitoint.24hr): 0.68 µM
minimal effective concentration (HUVECs; nma, 24 hr, read-out: POD huvec.nma.24hr): 0.53 µM
minimal effective concentration (HUVECs; tc, 24 hr, read-out: POD huvec.tc.24hr): 0.00637 µM
viability at 0.01 µM (HUVECs; [10]): 89.2%
activity at 0.01 µM (HUVECs; [11]): 87.8%
activity at 0.01 µM (HUVECs; [12]): 92.4%
activity at 0.01 µM (HUVECs; [13]): 101%
viability at 0.1 µM (HUVECs; [10]): 101%
activity at 0.1 µM (HUVECs; [11]): 101%
activity at 0.1 µM (HUVECs; [12]): 105%
activity at 0.1 µM (HUVECs; [13]): 101%
viability at 1 µM (HUVECs; [10]): 75.5%
activity at 1 µM (HUVECs; [11]): 69.3%
activity at 1 µM (HUVECs; [12]): 58.6%
activity at 1 µM (HUVECs; [13]): 81.8%
viability at 10 µM (HUVECs; [10]): 56%
activity at 10 µM (HUVECs; [11]): 30.5%
activity at 10 µM (HUVECs; [12]): 10.8%
activity at 10 µM (HUVECs; [13]): 74.2%
viability at 100 µM (HUVECs; [10]): 87.4%
activity at 100 µM (HUVECs; [11]): 1.29%
activity at 100 µM (HUVECs; [12]): 44%
activity at 100 µM (HUVECs; [13]): 73.5%
minimal effective concentration (HUVECs; HUVECs, 24 hr, top concentration 100.00 µM, read-out: huvec.cyto.24hr POD): 0.00637 µM
minimal effective concentration (HUVECs; HUVECs, 24 hr, top concentration 100.00 µM, read-out: huvec.mito.24hr POD): 0.08 µM
minimal effective concentration (HUVECs; HUVECs, 24 hr, top concentration 100.00 µM, read-out: huvec.mitoint.24hr POD): 0.68 µM
minimal effective concentration (HUVECs; HUVECs, 24 hr, top concentration 100.00 µM, read-out: huvec.nma.24hr POD): 0.53 µM
viability at 0.01 µM (HUVECs; [14]): 89.3%
viability at 0.1 µM (HUVECs; [14]): 101%
viability at 1 µM (HUVECs; [14]): 75.5%
viability at 10 µM (HUVECs; [14]): 56%
viability at 100 µM (HUVECs; [14]): 99.4%
minimal effective concentration (HUVECs; HUVECs, 24 hrs, top concentration 100.00 µM, read-out: huvec.tc.24hrs POD): 0.00637 µM
